Structures are written as SMILES. Changes are numbered by the printed parent chain.

For data set [1], the target named is T1, norepinephrine transporter (NET) (Homo sapiens, UniProt P23975).
T1 construct: expressed in transfected cells; host or cells: HEK-293, stably transfected; cDNA from C; Pifl (University of Vienna)
Description: Specific uptake into norepinephrine transporter (NET) transfected HEK-293 cells. The following applies: 10 µmol/l, 5 min incubation. It is filed as cell-based. From the text:
Pifl (University of Vienna).
1. Burnette WB, Bailey MD, Kukoyi S, Blakely RD, Trowbridge CG, et al. (1996) Human norepinephrine transporter kinetics using rotating disk electrode voltammetry. Anal Chem 68: 2932–2938. (0.90 MB TIF) Click here for additional data file.

A further data set has as its target T2, OCT2 variant M165I (Homo sapiens, UniProt O15244, M165I/S270A).
T2 sequence (O15244 1-555 M165I/S270A): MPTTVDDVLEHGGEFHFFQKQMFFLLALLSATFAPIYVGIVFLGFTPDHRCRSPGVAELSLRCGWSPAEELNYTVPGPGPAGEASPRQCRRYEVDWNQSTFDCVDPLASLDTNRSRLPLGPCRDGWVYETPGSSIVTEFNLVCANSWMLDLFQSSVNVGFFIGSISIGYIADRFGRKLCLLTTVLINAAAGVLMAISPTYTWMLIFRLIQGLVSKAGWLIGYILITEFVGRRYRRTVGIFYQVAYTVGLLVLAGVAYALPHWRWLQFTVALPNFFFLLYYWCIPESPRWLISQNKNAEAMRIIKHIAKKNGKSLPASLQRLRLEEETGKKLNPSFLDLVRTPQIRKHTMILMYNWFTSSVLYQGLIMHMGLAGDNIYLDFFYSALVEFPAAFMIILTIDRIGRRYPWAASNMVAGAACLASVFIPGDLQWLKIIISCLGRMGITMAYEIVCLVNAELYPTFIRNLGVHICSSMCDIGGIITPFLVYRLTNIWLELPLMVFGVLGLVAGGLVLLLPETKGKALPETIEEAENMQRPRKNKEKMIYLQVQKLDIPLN
Description: Specific uptake into HEK-293 cells transfected with OCT2 variant M165I. On the procedure:
The cDNAs encoding the organic cation transporters OCT1 (GenBank accession no. NM_003057), OCT2 (NM_003058), and EMT (NM_021977) were amplified by RT-PCR from human liver, kidney, and placenta total RNA respectively, and subcloned into the eukaryotic expression vector pcDNA3. The cDNA encoding the norepinephrine transporter (SLC6A2) was kindly provided by C. Pifl (University of Vienna).
For uptake experiments, cells were grown on polystyrene dishes of 60 mm diameter to at least 80% confluence. […] Cells were lysed with 1 ml of 4 mmol/l perchloric acid and lysates subjected to LC-MS-MS quantification. Cellular protein content was determined after solubilization of perchloric acid precipitates with 1 ml of […] NaOH using the bicinchoninic assay (BCA Protein Assay Kit, Pierce).
Chromatographic separations were performed on Hypercarb (5 µm, 50×2.1 mm; Thermo Electron), Aquasil C18 (3 µm, 100×4.6 mm; Thermo Electron), or Hilic columns (5 µm, 100×3.0 mm; Waters Atlantis) by isocratic or gradient elution using 0.1% aqueous formic acid (A) and acetonitrile or methanol (B) as solvent system. For quantification, SRM transitions of a precursor ion [M+H]^+ into a specific fragment ion (peak area ratios relative to IS) were recorded in positive ESI mode at 1.0–1.5 mTorr collision pressure and 10–40 eV collision energy. […]

A further data set has as its system SH-SY5Y cells. Description: MTT reduction cell viability assay, SH-SY5Y cells. It is filed as cell-based, human. As to the method:
Cell viability was assessed in HEK-293 cells, human dopaminergic neuroblastoma cells (SH-SY5Y) and human glioblastoma cells (HTZ-146) by the MTT test as described.[22] […] For indication of metabolic activity, cells were treated with MTT reagent (15 µl of 1 mg/ml stock solution per well) for 1 h, and after drying of culture plates for 1 h at 37°C, the resulting formazan dye was extracted with isopropanol/HCl (100 µl 0.04 mol/l per well) and absorbance was determined spectrophotometrically at 568 nm. Results were in agreement with the data obtained by the tryptan blue exclusion method (data not shown).
Background: Tetrazolium dyes change colour on reduction, which living cells bring about.

The target of another data set is T3, OCT2 (wild-type 400R) (Homo sapiens, UniProt O15244, S270A).
T3 sequence (O15244 1-555 S270A): T2 sequence (O15244 1-555 M165I/S270A) with I165M
Description: Specific uptake into OCT2 (wild-type) transfected HEK-293 cells vs empty vector, LC-MS-MS. Particulars: human, pH 7.4.

The next data set deals with OCT1. Description: MTT reduction cell viability assay, OCT1-transfected HEK-293 cells. The following applies: human, HEK-293 cells transfected with OCT1; 48 h exposure; read-out: EC50 (95% confidence interval), cell viability. The format is cell-based.

T1 sequence (P23975 whole entry): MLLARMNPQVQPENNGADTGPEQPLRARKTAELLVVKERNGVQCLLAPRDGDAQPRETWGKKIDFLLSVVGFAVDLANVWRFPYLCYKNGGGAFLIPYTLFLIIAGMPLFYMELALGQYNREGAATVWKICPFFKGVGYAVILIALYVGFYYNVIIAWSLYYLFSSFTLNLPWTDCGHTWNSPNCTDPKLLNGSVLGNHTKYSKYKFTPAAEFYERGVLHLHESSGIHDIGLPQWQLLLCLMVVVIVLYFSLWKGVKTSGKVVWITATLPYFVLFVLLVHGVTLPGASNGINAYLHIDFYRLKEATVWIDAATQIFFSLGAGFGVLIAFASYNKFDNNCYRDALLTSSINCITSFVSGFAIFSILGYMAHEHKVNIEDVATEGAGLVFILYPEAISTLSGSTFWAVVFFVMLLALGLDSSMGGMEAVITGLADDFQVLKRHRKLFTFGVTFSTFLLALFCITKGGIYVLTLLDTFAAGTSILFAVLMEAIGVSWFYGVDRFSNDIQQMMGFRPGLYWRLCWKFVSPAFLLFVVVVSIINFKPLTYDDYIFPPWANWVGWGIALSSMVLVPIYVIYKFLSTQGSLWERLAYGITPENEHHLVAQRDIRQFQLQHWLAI

For the molecule `O=C1NC(Cc2c[nH]cn2)C(=O)N2CCCC12` (centres unmarked) [cyclo(his-pro), histidyl-proline diketopiperazine], the “substrate of NET (specific uptake)” value in data set [1] is recorded as “no substrates of NET”. The Clin on OCT2 variant M165I (incubation with 10 µmol/l, mean (s.e.m.)) is 24.8 (3.7) µl/mg/min. Besides, the “effect on glutamate-induced cytotoxicity” value in the data set on SH-SY5Y cells (pre-treated 1 h with 10 µmol/l cyclo(his-pro)) is given as “prevented”.

Regarding `CC1NCCc2cc(O)c(O)cc21` (centres unmarked) [salsolinol], the “substrate of NET (specific uptake)” value in data set [1] is “no substrates of NET”. The Km at 1 min amounted to 127 µM at OCT2 variant M165I (human, pH 7.4) and 130 µM at OCT2 (wild-type 400R). In addition, the concentration for a half-maximal effect (EC50) in the data set with SH-SY5Y cells (Homo sapiens, SH-SY5Y, 48 h, non-pretreated, read-out: EC50 (95% confidence interval), cell viability) worked out at 49 µM. Moreover, the EC50 at 48 h in the data set on OCT1 stood at 627 µM.

Broadly, the Km is the concentration of substrate that gives half-maximal velocity. A word on the EC50: it is the midpoint of the concentration-response curve.

For the origin of these results see article PMC1851987, “Identification of the Endogenous Key Substrates of the Human Organic Cation Transporter OCT2 and Their Implication in Function of Dopaminergic Neurons” (PLoS ONE, 2007).
